Experimental data from ChEMBL document CHEMBL1123903, “Synthesis and antimalarial effects of 4-[(7-chloro-4-quinolinyl)amino]-2-[(diethylamino)methyl] -6-alkylphenols and their N omega-oxides” (1987).

Tests used:
Type in all cases: functional
Plasmodium berghei [1] = test: Change in mean survival time of trophozoite-induced Plasmodium berghei infection after 40 mg/kg subcutaneous dose
Plasmodium berghei [2] = test: Change in mean survival time of trophozoite-induced Plasmodium berghei infection after 80 mg/kg subcutaneous dose
Plasmodium berghei [3] = test: Change in mean survival time of trophozoite-induced Plasmodium berghei infection after 20 mg/kg subcutaneous dose
Mus musculus [4] = test: Number of deaths when administered as a single dose of 640 mg/kg (sc) 72-h postinfection in mice
Plasmodium berghei [5] = test: Change in mean survival time of trophozoite-induced Plasmodium berghei infection after 160 mg/kg subcutaneous dose
Mus musculus [6] = test: Number of deaths when administered as a single dose of 320 mg/kg (sc) 72-h postinfection in mice

CCN(CC)Cc1cc(Nc2cc[n+]([O-])c3cc(Cl)ccc23)cc(Cc2ccccc2)c1O
Delta MST (Plasmodium berghei [1]): 2 days | Delta MST (Plasmodium berghei [2]): 4.2 days | Delta MST (Plasmodium berghei [3]): 0.4 days | Deaths (Mus musculus [4]): 14 | Delta MST (Plasmodium berghei [5]): 5.4 days | Deaths (Mus musculus [6]): 14
